# Experimental data published in patent US20170281509A1, “COMPOSITIONS AND METHODS FOR MITIGATING SKIN IRRITATION” (GOJO INDUSTRIES, INC., priority 2014, published 2017).
# System: IL-8 secretion by human dermal keratinocytes
# Assay: IL-8 secretion (ELISA) in human dermal keratinocytes co-treated with irritant surfactant mixture
# Type: cell-based
# Conditions: FIG. 1
# Description: Interleukin 8 (IL-8) is a chemokine and proinflammatory cytokine produced by macrophages and other cell types such as epithelial cells. It is secreted from keratinocytes in skin in response to inflammatory stimuli. IL-8 is secreted and is an important mediator of the immune reaction in the innate immune system response. IL-8 overexpressed is a biomarker of skin irritation. Thus, the following method may be employed to measure the irritancy potential of an ingredient or combination of ingredients.
# For Control A, human dermal keratinocytes were left untreated. No irritation is expected, and therefore Control A provided a baseline. For Control B, IL-8 was induced in human dermal keratinocytes by applying a surfactant mixture that is a combination of sodium laureth sulfate and polyquaternium-10. For all other samples, the human dermal keratinocytes were co-treated with the surfactant mixture and a composition containing the ingredient of interest. Decreased IL-8 expression reflects the ingredient's anti-irritation activity. In other words, decreased IL-8 expression reflects reduced irritancy potential.
# In order to carry out the test method, an assay kit was employed that was obtained from R&D Systems: Human CXCL8/IL-8 Duoset ELISA Kit.
# The following steps were followed: 1. […] Using a colorimeter, absorbance of each well in the plates was measured at 450 nanometers (nm) within 30 minutes. […]
substance,measurement,value
acetyl hexapeptide-51 amide,effect on IL-8 secretion compared to Control B (in words),reduced IL-8 secretion
